The record followed here is patent US20060252727A1, “Medicinal compositions and therapeutic methods for treating arthritis and other painful conditions” (priority 2001, published 2006).

Assay [1] has as its system mouse hot plate jumping threshold. Briefly: Analgesic activity, mouse hot plate test. Type of assay: in vivo. From the text: Analgesic activity of DPA using the mouse hot plate test. The mouse hot plate is a generally recognized method for evaluating analgesic drugs that act on the endorphin system, e.g., morphine-like drugs and drugs that increase endorphin levels, e.g., DPA. Such drugs are useful for treating many kinds of painful conditions, including arthritis, headache, low back pain, musculoskeletal pain, pre-menstrual pain, and dental pain.
In this method, groups of mice (6 albino mice per group, weighing between 22 and 25 grams) are individually placed on a hot plate at 55° C. and a beaker is placed over the mouse. The time for the mouse to jump in an attempt to escape the painful condition is recorded. An analgesic substance is one which increases the threshold to pain, thereby permitting the mouse to remain on the hot plate for longer times. The effect of the drug is compared to that of a saline control. DPA at different doses was injected intra-peritoneally into the mice 2 hours before they were placed on the hot plate, and jumping time determined over the next 1-2 hours. The effect of DPA was compared with that of an injection of saline.
For studies involving combinations of drugs, the combination was injected at the same time. In the studies shown below, the second drug consisted of indomethacin, diclofenac, or acetaminophen. Each of these drugs is used for treating arthritis, as well as many other painful conditions.
(Hot-plate and tail-flick tests time the reaction to a heat stimulus.)

The subject of assay [2] is pain in patients with arthritis and other skeletal diseases. Briefly: Efficacy of DPA in humans with arthritis and other musculoskeletal diseases (open-label, cross-over). It counts as in vivo, human. Here is the method:
4. Efficacy of DPA treatment for arthritis and a variety of other musculoskeletal diseases; human studies. Forty-three patients were studied in an open-label, cross-over procedure. Of these, 32 had arthritis. All of the patients had previously been given many treatments, without success, in relieving their pain. Pre-DPA administration treatments used included such potent drugs as Percodan, Darvocet, Valium, and aspirin, as well as acupuncture. Prior to giving DPA 800 mg/day by mouth, all treatments were stopped. Patients were given a card on which they scored their degree of pain, on a scale of 1-4; 1 indicated no relief, 2 indicated approximately 25% relief, 3 indicated approximately 50% relief, and 4 indicated complete relief.

Assay [3] relates to carrageenan swelling of the rat paw. Briefly: Anti-inflammatory activity, rat paw carrageenan method. It counts as in vivo. Here is the method: Anti-inflammatory activity of DPA using the rat paw carrageenan method. This is a generally recognized method for evaluating anti-inflammatory drugs of the aspirin/NSAID (as used throughout this application NSAID refers to a non-steroidal, anti-inflammatory drug) type or those that counteract the action of the prostaglandins. Such drugs are useful for treating conditions such as arthritis in animals and humans. In this method, the paw of the rat is injected with carrageenan, which causes swelling of the paw due to the accumulation of fluid. […] In this study, DPA was administered by various routes and times into groups of rats (6 male albino rats per group-weight approximately 250 grams) before carrageenan and the degree of swelling was measured by the extent of displacement of water when the paw was immersed into a calibrated cylinder. A placebo consisting of saline solution was similarly administered.

For assay [4], the system named is PBQ writhing in mice. Briefly: Anti-inflammatory activity, mouse phenylbenzylquinone (PBQ) writhing test. Type of assay: in vivo. The conditions noted are these: for Number of writhes: counted over 20 minutes. How it is done:
Anti-inflammatory activity of DPA using the mouse phenylbenzylquinone (PBQ) writhing test. This is a generally recognized method for evaluating anti-inflammatory drugs of the aspirin/NSAID type, i.e. those drugs which counteract the action of the prostaglandins. Such drugs are useful for treating conditions such as arthritis in animals and humans.
In this method, a solution of PBQ was injected subcutaneously into groups of 6 mice (male, albino, 22-25 grams). Within a few minutes, the mice began to writhe. DPA was injected intra-peritoneally or given by mouth at different times prior to PBQ. The number of writhes was counted over a period of 20 minutes. The effects of DPA were compared to that of similarly administered saline control.
(In general: An intraperitoneal irritant provokes the stretching counted in writhing tests.)

Assay [5] deals with PBQ writhing in mice. The assay is described as above. It counts as in vivo. To be noted: for Number of writhes: counted over 20 minutes. This is another data set of the same source.
Setting [6] is: NSAID alone, 20 mg/kg, hot plate at 55° C.
Setting [7] is: DPA 800 mg/day by mouth, 43 patients, 32 with arthritis, self-scored pain relief.

Marks after values point to notes of the source that are not given here.

For `O=C(O)Cc1ccccc1Nc1c(Cl)cccc1Cl` [Diclofenac, diclofenac, reference compound], the “Increase in the threshold to jumping, compared to control” value (from here on “Increase in the threshold to jumping”) in assay [1] (setting [6]) is on record as 0.

For `N[C@H](Cc1ccccc1)C(=O)O` [DPA, D-phenylalanine], in assay [2] (setting [7]), the “Complete relief of pain (number of patients)” value amounted to 2. In addition, the “Excellent relief of pain (number of patients)” value in assay [2] (setting [7]) was 7. The “Moderate relief of pain (number of patients)” value in assay [2] (setting [7]) is on record as 19. The “No relief of pain (number of patients)” value in assay [2] (DPA 800 mg/day by mouth, 43 patients, most of these took DPA for only 1-2 weeks) is given as 15*. The “effect on pain in humans” value in assay [2] (DPA alone, 800 mg/day) was “successfully decrease”. For the same molecule, the “% Inhibition of swelling” value stood at 7% in assay [3] (oral administration, 150 minutes before carrageenan, 125 mg/kg); 10% in assay [3] (oral administration, 150 minutes before carrageenan, 250 mg/kg); 24% in assay [3] (oral administration, 150 minutes before carrageenan, 500 mg/kg); 62% in assay [3] (oral administration, 150 minutes before carrageenan, 1000 mg/kg); 79% in assay [3] (oral administration, 150 minutes before carrageenan, 1500 mg/kg); 15% in assay [3] (subcutaneous injection, 120 minutes before carrageenan, 8 mg/kg). The “% Inhibition of swelling” value is reported as 37% in assay [3] (subcutaneous injection, 120 minutes before carrageenan, 125 mg/kg); 35% in assay [3] (subcutaneous injection, 120 minutes before carrageenan, 500 mg/kg); 35% in assay [3] (subcutaneous injection, 6 hours before carrageenan, dose 62.5); 36% in assay [3] (subcutaneous injection, 6 hours before carrageenan, dose 250); 75% in assay [3] (subcutaneous injection, 6 hours before carrageenan, dose 500). For the same molecule, the “Increase in the threshold to jumping” value in assay [1] (DPA 250 mg/kg intra-peritoneally, 2 hours before hot plate at 55° C.) was 3-fold. The “increase of the threshold time to jump, as compared to saline control” value in assay [1] (mouse hot plate, as shown in Table 3) was “three-fold”. Also, the “% inhibition of writhing” value in the assay with PBQ writhing in mice [4] (intra-peritoneal injection, 2 hours before PBQ, 250 mg/kg) was determined as 73%; in the assay on PBQ writhing in mice [4] (intra-peritoneal injection, 2 hours before PBQ, 500 mg/kg), 90%; in the assay on PBQ writhing in mice [4] (oral administration, 2.5 hours before PBQ, 250 mg/kg), 10%; with PBQ writhing in mice [4] (oral administration, 2.5 hours before PBQ, 1000 mg/kg) it was 62%; with PBQ writhing in mice [5] (oral administration, 2.5 hours before PBQ, 500 mg/kg), 24%; with PBQ writhing in mice [5] (subcutaneous injection, 6 hours before PBQ, 62.5 mg/kg), 35%. In addition, the “% inhibition of writhing” value in the assay with PBQ writhing in mice [5] (subcutaneous injection, 6 hours before PBQ, 250 mg/kg) is 36%; in the assay with PBQ writhing in mice [5] (subcutaneous injection, 6 hours before PBQ, 500 mg/kg) it was 75%. The Number of writhes in the assay on PBQ writhing in mice [4] (intra-peritoneal injection, 2 hours before PBQ, 250 mg/kg, saline 125) is on record as 34; in the assay on PBQ writhing in mice [4] (intra-peritoneal injection, 2 hours before PBQ, 500 mg/kg, saline 125), 13; with PBQ writhing in mice [4] (oral administration, 2.5 hours before PBQ, 250 mg/kg, saline 148), 133; in the assay with PBQ writhing in mice [4] (oral administration, 2.5 hours before PBQ, 500 mg/kg, saline 148) it was 110; with PBQ writhing in mice [4] (oral administration, 2.5 hours before PBQ, 1000 mg/kg, saline 148), 56; in the assay with PBQ writhing in mice [5] (subcutaneous injection, 6 hours before PBQ, 62.5 mg/kg, saline 166), 108. The Number of writhes in the assay on PBQ writhing in mice [5] (subcutaneous injection, 6 hours before PBQ, 250 mg/kg, saline 166) was found to be 106; in the assay on PBQ writhing in mice [5] (subcutaneous injection, 6 hours before PBQ, 500 mg/kg, saline 110) it was 28.

In the case of `COc1ccc2c(c1)c(CC(=O)O)c(C)n2C(=O)c1ccc(Cl)cc1` [Indomethacin, indomethacin, reference compound], the “Increase in the threshold to jumping” value in assay [1] (setting [6]) is on record as 0.
